Measured values: paper PMC11645267, “Novel pharmacologic inhibition of lysine-specific demethylase 1 as a potential therapeutic for glioblastoma” (Cancer Gene Therapy, 2024)

Tested on: GSC1228
Test: Stemness / differentiation marker expression (qPCR, western blot)
Format: cell-based
Conditions: GSC1228, 5 μM, 96 h
From the text: Super-enhancers consist of enhancer clusters with abundant binding of transcription factors and are highly enriched with H3K27ac marks. The H3K4me2 increased regions included the MYC locus and H3K4me2 de novo regions comprised Nestin and SOX2 loci (Fig. 2F, Supplementary Fig. S5A). These regions were also identified as super-enhancers in GSCs using data from our previous study (Fig. 2F). Compared to the large increase in H3K4me2 in these regions, changes in H3K4me3 were subtle after S2172 treatment (only 2582 regions were acquired modification) (Fig. 2C). Increasing the me2/me3 ratio at H3K4 is associated with reduced gene expression.
A mRNA expression of stem cell marker genes following 96 h treatment of GSC1228 with S2172 (5 μM). The y-axis indicates the expression change relative to DMSO-treated cells. Error bar indicates the SD. *P < 0.05. B Left panel, western blot analysis of MYC, Nestin, and SOX2 after treatment of GSC1228 with either DMSO or S2172 (5 μM) for 96 h. β-actin (ACTB) was used as the loading control. Right panel, Quantification of band signal intensities from the western blot. C mRNA expression of the differentiation marker gene, GFAP, following treatment of GSC1228 with S2172 (5 μM) for 96 h. The y-axis indicates the expression change relative to DMSO-treated cells. Error bar indicates the SD. D PARP cleavage ratio after treatment of GSC1228, GSC222, and GSC316 with S2172 (5 μM). The ratio was calculated by dividing the cleaved-PARP band intensity by the full length-PARP band intensity. Error bar indicates the SD. *P < 0.05. E Representative Western blot results of RAPR after treatment of GSC1228, GSC222, and GSC316 with either DMSO or S2172 (5 μM) for 96 h. The full length-PARP band (106 kDa) and cleaved PARP band (89 kDa) are shown. β-actin (ACTB) was used as the loading control. n = 4. […]
instructions. For GSC cells, the CellTiter-Glo 3D Viability Assay (Promega, Madison, WI, USA) was used to measure the living cells. All proliferation experiments were repeated […]
The density of bands was quantified using ImageJ software (https://imagej.nih.gov/ij/). […]

NC1CCC(NC2CC2c2cc(F)cc(F)c2OCc2ccccc2)CC1 (stereo not drawn) [S2172]
mRNA level of stemness marker genes MYC, Nestin, SOX2: significantly downregulated | protein level of MYC, Nestin, SOX2: tended to be downregulated | transcription of astrocytic marker GFAP: did not transcriptionally induce
